Test results taken from EPA's ToxValDB 9.5 (doi:10.2903/j.efsa.2016.4503).

What was measured:
[1] = tested on: Aphidius rhopalosiphi; test: LR50; higher = less toxic; conditions: not reported; mortality
[2] = tested on: Tagia sp.; conditions: chronic/long-term; reproduction
[3] = tested on: Coturnix japonica; conditions: chronic
[4] = tested on: Pimephales promelas; conditions: chronic/long-term; duration: 28 days
[5] = tested on: Colinus virginianus; conditions: acute; oral; mortality
[6] = tested on: Apis mellifera; conditions: acute, mortality
[7] = tested on: Bibionidae; conditions: chronic/long-term; duration: 23 days; reproduction
[8] = tested on: Anas platyrhynchos; conditions: acute; oral; unspecified; mortality
[9] = tested on: Hypoaspis aculeifer; conditions: chronic/long-term; reproduction
[10] = tested on: Rattus norvegicus
[11] = tested on: Oncorhynchus mykiss; conditions: acute; duration: 96 hours; mortality

## Cc1ccc(-c2c(Cl)nc(C#N)n2S(=O)(=O)N(C)C)cc1
[1]
  LR50: > 209 g/ha
[2]
  NOEC: 2 mg/kg
[3]
  NOAEL: 151 mg/kg-day
[4]
  NOEC: 0.09 mg/L
[5]
  LD50: > 2000 mg/kg-day
[6]; dermal
  LD50: 9.52 µg/piece
[6]; oral, unspecified
  LD50: > 31.8 µg/piece
[7]
  NOEC: 0.0117 mg/L
[8]
  LD50: > 2000 mg/kg-day
[9]
  NOEC: 18.7 mg/kg
[10]; acute, oral, mortality
  LD50: > 5000 mg/kg
[10]; chronic, duration: 2 years, organ weight
  NOAEL: 17 mg/kg-day
[10]; reproduction developmental, body weight
  NOAEL: 89 mg/kg-day
[10]; subchronic, duration: 90 days, oral, organ weight
  NOAEL: 29.5 mg/kg-day
[11]
  LC50: > 0.107 µg/mL
